{
  "source": "patent US20170356126A1",
  "about": "“LIQUID FILM CLEAVAGE AGENT” (Kao Corporation, priority 2014, published 2017)",
  "method": "Further, the water solubility is considered to be applied also to menstrual blood, urine or the like which contains water as a main component.\nSpecifically, the agent is added for every 0.0001 g, and the measurement is performed.\nThese numerical values were measured by the above-mentioned measuring method. […] Moreover, the water solubility was measured by adding the agent for every 0.0001 g.",
  "data": [
    {"substance": "dimethyl silicone oil [Comparative Example 2, reference compound]", "values": [
      {"measurement": "Water solubility of the above agent", "value": 0.0001, "unit": "g"}
    ]}
  ]
}
